Structures can show the parent of a compound that is named as a salt. Where two headings read alike, the source gives them in different places.
Legend:
ip P388 leukemia = conditions: ip P388 (10^6 cells), ip, Days 1 & 5
Protocol: Increase in lifespan (ILS) is based on median survival time of groups of 6 mice. Net tumor cell kill (NCK) is calculated from median survival time by standard methods, since survival time is a linear function of the log tumor cell burden.
Animals were implanted ip with 10^6 cells. Increase in lifespan (ILS) is based on median survival time of groups of 6 mice relative to untreated controls. Long-term survivors were tumor-free on Day 45.
Tumors used in these studies--P388 leukemia and its doxorbicin--and mitoxanrone-resistant sublines, L1210 leukemia, B16 melanoma, B16 melanoma/F10 subline, M5076 sarcoma and colon carcinoma 26--are maintained by serial transplantation in syngeneic strains of mice. For the leukemias, these tumors are maintained in DBA/2 mice. The M5076 sarcoma, the B16 melanoma and its F10 subline are maintained in C57B1/6 mice and the colon sarcinoma 26 is maintained in BALB/c mice. The leukemias and the M5076 sarcoma are serially transplanted i.p. as ascites cell suspensions while the B16 melanoma lines and the colon carcinoma 26 are serially transplanted as s.c. solid tumors.
For therapeutic trials, tumors are aseptically removed from donor mice and prepared as suspensions for implantation ip into test animals. The test animals for the colon carcinoma 26 are female BALB/c mice (20-25 gm). The test animals for the other tumor models are syngeneic female F1 hybrid B6D2F1 mice (C57B1/6 x DBA/2). The inoculum level varies with the type of tumor: P388 leukemia is inoculated at 10^6 cells per mouse, L1210 leukemia at 10^5 or 10^6 cells per mouse, M5076 sarcoma at 5×10^6 cells per mouse. For implantation of the B16 melanoma lines and the colon carcinoma 26, s.c. tumors from donor mice are minced and homogenized in loose fitting teflon glass homogenizer to give a tumor brei. The inoculum levels are 0.5 ml of a 10 percent (w:v) brei of the B16 melanoma lines and 0.5 ml of a 5 percent (w:v) brei of colon carcinoma 26. After tumor inoculation, mice randomized to treatment groups comprised of 6-8 mice each. In each experiment, there are three groups of untreated control mice. Drugs are dissolved or suspended in appropriate aqueous vehicles and given by a variety of routes and schedules of administration over a range of dose levels. Animals are housed in shoebox cages and are monitored daily for mortality for 30 (L1210), 45 (P388) or 60 (B16, M5076, colon 26) days.

iv L1210 leukemia = conditions: iv L1210 (10^6 cells)
Description: Animals were inoculated iv with 10^6 cells. Increase in lifespan (ILS) is based on median survival time of groups of 6 mice relative to untreated controls.
The protocols utilized for the evaluation of the antitumor activity of Formula (I) compounds are well established and widely utilized by those skilled in the art of assessing the activity of drugs in preclinical tumor models. These studies generally follow the protocols established by the National Cancer Institute as described by Geran et al., Cancer Chemotherapy Reports, Part 3, Vol. 3, 1-103, 1972.
Tumors used in these studies P388 leukemia, L1210 leukemia and Lewis lung carcinoma--are maintained by serial transplantation in syngeneic strains of mice, DBA/2 for the leukemias and C57B1/6 for Lewis lung carcinoma. The leukemias are serially transplanted i.p. as ascites cell suspensions while the Lewis lung carcinoma is serially transplanted as a s.c. solid tumor.
For therapeutic trials, tumors were aseptically removed from donor mice and prepared as suspensions for implantation into test animals which for each tumor are syngeneic female F1 hybrid B6D2F1 mice (C57B1/6×DBA/2). The inoculum level varies with the type of tumor: P388 leukemia is inoculated at 10^6 cells per mouse, L1210 leukemia at 10^5 or 10^6 cells per mouse, and Lewis lung carcinoma at 0.25 ml of a 10 percent (w:v) brei. […] After tumor inoculation, mice are randomized to treatment groups of 6 to 8 mice each. In each experiment, there are three groups of untreated control mice.
Drugs are dissolved or suspended in appropriate aqueous vehicles and given i.p. or i.v. on various treatment schedules over a range of dosage levels. Animals are housed in shoebox cages and monitored daily for mortality for 30 (L1210), 45 (P388) or 60 (Lewis lung) days.

L1210 leukemia cells = experiment: cells; type: cell-based, mouse; conditions: Mus musculus, L1210, read-out: In Vitro Activity IC50
Protocol: Cells were exposed continuously upon cloning into medium containing 0.2 percent Noble agar. After incubation at 37° C. in a CO2 incubator for 3 days, colonies were stained with viable cell specific formazan stain and, 24 hours later, were enumerated by a colony counter (Biotran II, New Brunswick Scientific Co., Edison, N.J.) adjusted to identify colonies of more than 50 cells. The concentration which reduced cloning efficiency by 50 percent IC50) was determined by interpolation.

ip L1210 leukemia = experiment: ip-implanted L1210 leukemia in mice;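 note: each mouse received 10^6 L1210 cells intraperitoneally, with drug treatment also given by the i.p. route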; conditions: ip L1210 (10^6 cells); drug i.p. Days 1 and 5 at maximally tolerated dose
Protocol: (§1) For in vivo studies L1210 cells were implanted i.p. (10^6 per mouse)
(§2) and drugs were administered i.p. on Days 1 and 5. Increase in lifespan
(§3) (ILS) was based on median survival time of groups of 6 mice treated at th
maximally tolerated dose of the drugs.

[1] = ip-implanted L1210 leukemia in mice; conditions: mouse, in vivo, ip;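 note: each mouse received 10^6 L1210 cells intraperitoneally, with drug treatment also given by the i.p. route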
Protocol: as §1, §2, §3
maximally tolerated dose of the drugs.

Compound	IC50 (L1210 leukemia cells) [nM]	In Vivo Antitumor Activity ILS (increase in lifespan) (ip L1210 leukemia) [%]	MTD [1] [mg/kg]	also measured
CCC1(O)C(=O)OCc2c1cc1n(c2=O)Cc2cc3c(CN(C)C)c(O)ccc3nc2-1 (racemic) [Compound No. 1RS, (20 R,S)-9-Dimethylaminomethyl-10-hydroxycamptothecin Acetate Salt]	–	–	–	ILS (ip P388 leukemia; 3.6 mg/kg): 30%; ILS (ip P388 leukemia; 7.2 mg/kg): 80%; ILS (ip P388 leukemia; 14 mg/kg): 135%; ILS (ip P388 leukemia; 29 mg/kg): 165%; Long-term Survivors (tumor-free on Day 45) (ip P388 leukemia; 29 mg/kg): 1/6
CC[C@@]1(O)C(=O)OCc2c1cc1n(c2=O)Cc2cc3c(CN(C)C)c(O)ccc3nc2-1 [1S (dihydrochloride salt)]	–	–	–	ILS (iv L1210 leukemia; 5.4 mg/kg, Days 1 & 5, route ip in table head (iv), Dihydrochloride Salt): 50%; ILS (iv L1210 leukemia; 9 mg/kg, Days 1 & 5, route ip in table head (iv), Dihydrochloride Salt): 83%; ILS (iv L1210 leukemia; 15 mg/kg, Days 1 & 5, route ip in table head (iv in b213), Dihydrochloride Salt): 133%; ILS (iv L1210 leukemia; 15 mg/kg, Days 1 & 5, route ip in table head (iv in b213), listed as dihydrochloride, Dihydrochloride Salt): 133%
CC[C@@]1(O)C(=O)OCc2c1cc1n(c2=O)Cc2cc3c(CN(C)C)c(O)ccc3nc2-1 [1S (hydrochloride salt)]	–	–	–	ILS (iv L1210 leukemia; 3.2 mg/kg, Days 1 & 5, route ip in table head (iv)): 50%; ILS (iv L1210 leukemia; 5.4 mg/kg, Days 1 & 5, route ip in table head (iv), Monohydrochloride Salt): 92%; ILS (iv L1210 leukemia; 9 mg/kg, Days 1 & 5, route ip in table head (iv), Monohydrochloride Salt): 125%; ILS (iv L1210 leukemia; 15 mg/kg, Days 1 & 5, route ip in table head (iv in b213), Monohydrochloride Salt): 175%; ILS (iv L1210 leukemia; 15 mg/kg, Days 1 & 5, route ip in table head (iv in b213), listed as hydrochloride, Monohydrochloride Salt): 175%; ILS (iv L1210 leukemia; 25 mg/kg, Days 1 & 5, route ip in table head (iv)): toxic
CC[C@@]1(O)C(=O)OCc2c1cc1n(c2=O)Cc2cc3c(C=O)c(O)ccc3nc2-1 [2S, (20 S) 9-Formyl-10-hydroxycamptothecin]	260	75	42	–
CC[C@@]1(O)C(=O)OCc2c1cc1n(c2=O)Cc2cc3c(C[N+](C)(C)C)c(O)ccc3nc2-1 [3S, (20 S) 9-Trimethylammoniummethyl-10-hydroxycamptothecin Methanesulfonate Salt]	150	> 200	42	–
CC[C@@]1(O)C(=O)OCc2c1cc1n(c2=O)Cc2cc3c(CNCCO)c(O)ccc3nc2-1 [4S, (20 S) 9-(2'-Hydroxyethylamino) methyl-10-hydroxycamptothecin Acetate Salt]	250	75	42	–
CC[C@@]1(O)C(=O)OCc2c1cc1n(c2=O)Cc2cc3c(CN4CCOCC4)c(O)ccc3nc2-1 [5S]	370	83	100	–
CC[C@@]1(O)C(=O)OCc2c1cc1n(c2=O)Cc2cc3c(CN4CCN(C)CC4)c(O)ccc3nc2-1 [6S]	72	> 200	75	–
CC[C@@]1(O)C(=O)OCc2c1cc1n(c2=O)Cc2cc3c(CN4CCC(N5CCCCC5)CC4)c(O)ccc3nc2-1 [7S]	270	44	> 42	–
